This note sets out measurements from PubChem BioAssay (NCI).

Among the test systems are MOLT-4 leukemia; HCT-15 colon; PC-3 prostate; HCT-116 colon; MCF7 breast; UO-31 renal; NCI-H23 lung; T-47D breast; SF-295 CNS; K-562 leukemia; MALME-3M melanoma; SF-268 CNS; NCI-H226 lung.
What all share (assay): growth of human tumour cells (NCI), 48 h

Structures are written as SMILES.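 The compound was tested at five concentrations on cells cultured in 96-well plates, with a 48-hour exposure period. TGI marks complete inhibition of growth.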

On to `COc1ccc(/C=C2\OC(=O)C(Cl)=C2c2ccc(OC)c(Cl)c2)cc1`, for which the TGI in the assay with MOLT-4 leukemia was more than 100 µM; in the assay with HCT-15 colon it was more than 100 µM; in the assay with PC-3 prostate it was more than 100 µM; in the assay with HCT-116 colon, more than 100 µM; with MCF7 breast it was 46.1 µM; in the assay with UO-31 renal, 48.2 µM. The TGI is 44.9 µM in the assay with NCI-H23 lung; more than 100 µM with T-47D breast; 67.6 µM in the assay with SF-295 CNS; more than 100 µM in the assay on K-562 leukemia; 62.3 µM in the assay on MALME-3M melanoma; 44.3 µM in the assay with SF-268 CNS.

Consider `CC(=O)c1c(O)cc(O)c(-c2c(C)cc(O)c3c2C(=O)c2cccc(O)c2C3=O)c1O`, for which the TGI in the assay on MOLT-4 leukemia worked out at 38.5 µM; in the assay with HCT-15 colon it was 28.6 µM; in the assay with PC-3 prostate, 30.6 µM; in the assay on HCT-116 colon, 30 µM; in the assay on MCF7 breast, 29.8 µM; with UO-31 renal, 27.9 µM. Further, the TGI in the assay on T-47D breast was found to be 22.7 µM; in the assay with SF-295 CNS, 26.9 µM; in the assay with K-562 leukemia it was 62.6 µM; in the assay on MALME-3M melanoma it was 30.6 µM; in the assay on NCI-H226 lung it was 58.1 µM; in the assay with SF-268 CNS, 36.8 µM.

Turning to `CCOC(=O)Cc1cc(=O)[nH]c(-n2[nH]c(C)c(CCO)c2=O)n1`, the TGI with HCT-15 colon, in the assay on PC-3 prostate, in the assay on HCT-116 colon, in the assay with MCF7 breast, with UO-31 renal and in the assay on NCI-H23 lung was more than 100 µM in each case. Also, the TGI in the assay with T-47D breast, in the assay with SF-295 CNS, in the assay with K-562 leukemia, in the assay on MALME-3M melanoma, in the assay on NCI-H226 lung and in the assay on SF-268 CNS was more than 100 µM in each case.

As to `Cc1ccc(C)c2c1n1c(=O)n(C)c(=O)n21`, the TGI in the assay on HCT-15 colon, with PC-3 prostate, in the assay with HCT-116 colon, in the assay with MCF7 breast, in the assay with UO-31 renal and with NCI-H23 lung was more than 100 µM each time. Further, the TGI with T-47D breast, in the assay with SF-295 CNS, in the assay on MALME-3M melanoma, in the assay on NCI-H226 lung and in the assay with SF-268 CNS was more than 100 µM in each case.

Consider `COc1ccc(/C=C(/c2ccc(OC)cc2)c2c(Cl)cc(Cl)c(/C(=C\c3ccc(OC)cc3)c3ccc(OC)cc3)c2N=Nc2ccccc2)cc1`, for which the TGI with MOLT-4 leukemia, in the assay with HCT-15 colon, in the assay with PC-3 prostate, in the assay with HCT-116 colon, with MCF7 breast and with UO-31 renal was more than 100 µM each time. The TGI in the assay on NCI-H23 lung, in the assay with T-47D breast, in the assay on SF-295 CNS, with K-562 leukemia, in the assay with MALME-3M melanoma and in the assay with SF-268 CNS was more than 100 µM each time.

For `Cc1ccsc1/C=N/Nc1cc(C)c2ccccc2n1`, the TGI came out at 35.1 µM in the assay on MOLT-4 leukemia; 28.2 µM in the assay on HCT-15 colon; 51.4 µM with PC-3 prostate; 28.7 µM in the assay on HCT-116 colon; 30.4 µM in the assay with MCF7 breast; 36.1 µM with UO-31 renal. For the same compound, the TGI in the assay with NCI-H23 lung was 31.3 µM; in the assay on T-47D breast it was more than 100 µM; in the assay with SF-295 CNS it was 37.8 µM; in the assay on K-562 leukemia, 78.4 µM; in the assay on NCI-H226 lung, 37.1 µM; in the assay on SF-268 CNS, 42.2 µM.

On to `CCN(CCC#N)C(=O)Nc1ccccc1`, for which the TGI in the assay with MOLT-4 leukemia, with HCT-15 colon, with PC-3 prostate, in the assay with HCT-116 colon, in the assay with MCF7 breast and in the assay on UO-31 renal was more than 100 µM throughout. In addition, the TGI in the assay on NCI-H23 lung, in the assay with T-47D breast, in the assay with SF-295 CNS, in the assay on K-562 leukemia, in the assay with MALME-3M melanoma and in the assay with NCI-H226 lung was more than 100 µM throughout.

In the case of `Fc1ccc2c(c1)nc1n2C(c2c(F)cccc2F)SC1` (stereo unspecified), the TGI in the assay on MOLT-4 leukemia is 69 µM; in the assay with HCT-15 colon it was more than 100 µM; in the assay on PC-3 prostate, more than 100 µM; in the assay on HCT-116 colon it was more than 100 µM; in the assay on MCF7 breast, more than 100 µM; with UO-31 renal it was more than 100 µM. The TGI with NCI-H23 lung, in the assay on T-47D breast, with SF-295 CNS, with MALME-3M melanoma, in the assay on NCI-H226 lung and with SF-268 CNS was more than 100 µM throughout.

Take `Cn1c2ccccc2c2c3c(c4c5ccccc5n(C)c4c21)C(=O)N(c1ccccc1)C3=O`: the TGI in the assay on MOLT-4 leukemia, with HCT-15 colon, with PC-3 prostate, with HCT-116 colon, in the assay on MCF7 breast and in the assay on UO-31 renal was more than 100 µM throughout. For the same compound, the TGI with NCI-H23 lung, in the assay with T-47D breast, in the assay with SF-295 CNS, in the assay on K-562 leukemia, with MALME-3M melanoma and in the assay on NCI-H226 lung was more than 100 µM in each case.

In the case of `CC1=NN2CCC(=O)N=C2S1`, the TGI in the assay on MOLT-4 leukemia, in the assay on HCT-15 colon, with PC-3 prostate, in the assay with HCT-116 colon, in the assay on MCF7 breast and in the assay with NCI-H23 lung was more than 100 µM each time. Further, the TGI in the assay with T-47D breast, with SF-295 CNS, with K-562 leukemia, with MALME-3M melanoma, in the assay with NCI-H226 lung and in the assay on SF-268 CNS was more than 100 µM in each case.

With `COc1cccc(N(CN2C(=O)CCC2OC)C(C)=O)c1` (stereo unspecified), the TGI in the assay on MOLT-4 leukemia, in the assay on HCT-15 colon, with PC-3 prostate, with HCT-116 colon, in the assay on MCF7 breast and with UO-31 renal was more than 100 µM throughout. The TGI in the assay with NCI-H23 lung, with T-47D breast, in the assay on SF-295 CNS, in the assay on K-562 leukemia, in the assay with NCI-H226 lung and with SF-268 CNS was more than 100 µM in each case.
